# Measured values reported in ChEMBL document CHEMBL4308841, “Synthesis, in vitro antiproliferative activity, and kinase inhibitory effects of pyrazole-containing diarylureas and diarylamides” (Eur J Med Chem, 2018).
# Experiments:
# Hs-578T = experiment: Growth inhibition of human Hs578T cells assessed as cell growth at 0.01 uM incubated for 48 hrs by sulforhodamine B assay relative to control; format: functional; settings: read-out: Activity
# NCI-H460 [1] = experiment: Growth inhibition of human NCI-H460 cells assessed as cell growth at 0.01 uM incubated for 48 hrs by sulforhodamine B assay relative to control; format: functional; settings: NCI-H460, 48 h, read-out: Activity
# M14 = experiment: Growth inhibition of human M14 cells assessed as cell growth at 1 uM incubated for 48 hrs by sulforhodamine B assay relative to control; format: functional; settings: M14, 48 h, read-out: Activity
# HCT-116 [2] = experiment: Growth inhibition of human HCT116 cells assessed as cell growth at 1 uM incubated for 48 hrs by sulforhodamine B assay relative to control; format: functional; settings: HCT-116, 48 h, read-out: Activity
# NCI/ADR-RES [3] = experiment: Growth inhibition of human NCI/ADR-RES cells incubated for 48 hrs by sulforhodamine B assay; format: functional, cell-based
# CAKI-1 [4] = experiment: Growth inhibition of human Caki1 cells assessed as cell growth at 0.01 uM incubated for 48 hrs by sulforhodamine B assay relative to control; format: functional; settings: CAKI-1, 48 h, read-out: Activity
# U-251 [5] = experiment: Growth inhibition of human U251 cells assessed as cell growth at 0.01 uM incubated for 48 hrs by sulforhodamine B assay relative to control; format: functional; settings: U-251, 48 h, read-out: Activity
# SW-620 [6] = experiment: Growth inhibition of human SW620 cells assessed as cell growth at 1 uM incubated for 48 hrs by sulforhodamine B assay relative to control; format: functional; settings: SW-620, 48 h, read-out: Activity
# RPMI-8226 = experiment: Growth inhibition of human RPMI8226 cells incubated for 48 hrs by sulforhodamine B assay; format: functional, cell-based; settings: RPMI-8226, 48 h
# A498 = experiment: Growth inhibition of human A498 cells assessed as cell growth at 0.1 uM incubated for 48 hrs by sulforhodamine B assay relative to control; format: functional; settings: A498, 48 h, read-out: Activity
# UO-31 = experiment: Growth inhibition of human UO31 cells assessed as cell growth at 0.01 uM incubated for 48 hrs by sulforhodamine B assay relative to control; format: functional; settings: UO-31, 48 h, read-out: Activity
# SR = experiment: Growth inhibition of human SR cells assessed as cell growth at 0.1 uM incubated for 48 hrs by sulforhodamine B assay relative to control; format: functional; settings: read-out: Activity
# HCT-15 [7] = experiment: Growth inhibition of human HCT15 cells assessed as cell growth at 0.01 uM incubated for 48 hrs by sulforhodamine B assay relative to control; format: functional; settings: HCT-15, 48 h, read-out: Activity
# SK-MEL-28 = experiment: Growth inhibition of human SK-MEL-28 cells assessed as cell growth at 0.01 uM incubated for 48 hrs by sulforhodamine B assay relative to control; format: functional; settings: SK-MEL-28, 48 h, read-out: Activity
# NCI/ADR-RES [8] = experiment: Growth inhibition of human NCI/ADR-RES cells assessed as cell growth at 0.01 uM incubated for 48 hrs by sulforhodamine B assay relative to control; format: functional; settings: read-out: Activity
# HCT-116 [9] = experiment: Growth inhibition of human HCT116 cells assessed as cell growth at 100 uM incubated for 48 hrs by sulforhodamine B assay relative to control; format: functional; settings: HCT-116, 48 h, read-out: Activity
# KM12 = experiment: Growth inhibition of human KM12 cells assessed as cell growth at 100 uM incubated for 48 hrs by sulforhodamine B assay relative to control; format: functional; settings: KM12, 48 h, read-out: Activity
# NCI-H460 [10] = experiment: Growth inhibition of human NCI-H460 cells assessed as cell growth at 1 uM incubated for 48 hrs by sulforhodamine B assay relative to control; format: functional; settings: NCI-H460, 48 h, read-out: Activity
# MDA-MB-435 = experiment: Growth inhibition of human MDA-MB-435 cells assessed as cell growth at 0.1 uM incubated for 48 hrs by sulforhodamine B assay relative to control; format: functional; settings: MDA-MB-435, 48 h, read-out: Activity
# OVCAR-8 = experiment: Growth inhibition of human OVCAR8 cells incubated for 48 hrs by sulforhodamine B assay; format: functional, cell-based; settings: OVCAR-8, 48 h
# T47D = experiment: Growth inhibition of human T47D cells assessed as cell growth at 100 uM incubated for 48 hrs by sulforhodamine B assay relative to control; format: functional; settings: read-out: Activity
# Malme-3M = experiment: Growth inhibition of human MALME-3M cells incubated for 48 hrs by sulforhodamine B assay; format: functional, cell-based
# BT-549 [11] = experiment: Growth inhibition of human BT549 cells assessed as cell growth at 1 uM incubated for 48 hrs by sulforhodamine B assay relative to control; format: functional; settings: BT-549, 48 h, read-out: Activity
# ACHN = experiment: Growth inhibition of human ACHN cells assessed as cell growth at 100 uM incubated for 48 hrs by sulforhodamine B assay relative to control; format: functional; settings: read-out: Activity
# SF-539 = experiment: Growth inhibition of human SF539 cells assessed as cell growth at 0.1 uM incubated for 48 hrs by sulforhodamine B assay relative to control; format: functional; settings: SF-539, 48 h, read-out: Activity
# BT-549 [12] = experiment: Growth inhibition of human BT549 cells assessed as cell growth at 100 uM incubated for 48 hrs by sulforhodamine B assay relative to control; format: functional; settings: BT-549, 48 h, read-out: Activity
# CAKI-1 [13] = experiment: Growth inhibition of human Caki1 cells assessed as cell growth at 100 uM incubated for 48 hrs by sulforhodamine B assay relative to control; format: functional; settings: CAKI-1, 48 h, read-out: Activity
# HCT-15 [14] = experiment: Growth inhibition of human HCT15 cells assessed as cell growth at 1 uM incubated for 48 hrs by sulforhodamine B assay relative to control; format: functional; settings: HCT-15, 48 h, read-out: Activity
# SW-620 [15] = experiment: Growth inhibition of human SW620 cells assessed as cell growth at 100 uM incubated for 48 hrs by sulforhodamine B assay relative to control; format: functional; settings: SW-620, 48 h, read-out: Activity
# MOLT-4 = experiment: Growth inhibition of human MOLT4 cells assessed as cell growth at 0.1 uM incubated for 48 hrs by sulforhodamine B assay relative to control; format: functional; settings: MOLT-4, 48 h, read-out: Activity
# NCI-H522 = experiment: Growth inhibition of human NCI-H522 cells incubated for 48 hrs by sulforhodamine B assay; format: functional, cell-based; settings: NCI-H522, 48 h
# U-251 [16] = experiment: Growth inhibition of human U251 cells assessed as cell growth at 1 uM incubated for 48 hrs by sulforhodamine B assay relative to control; format: functional; settings: U-251, 48 h, read-out: Activity
# [17] = read-out: LC50 (the source's name)
# [18] = read-out: pLC50 (the source's name) (converted)
smiles,measurement,setting,value
O=C(Nc1cccc(-n2cc(-c3ccncc3)c(-c3cc(O)cc(Cl)c3)n2)c1)Nc1ccc(Cl)c(C(F)(F)F)c1,growth at 0.01 µM,Hs-578T,95%
same,growth at 0.01 µM,NCI-H460 [1],101%
same,growth at 1 µM,M14,83%
same,growth at 1 µM,HCT-116 [2],91%
same,GI50,NCI/ADR-RES [3]; read-out: GI50,3.41 µM
same,CC50,NCI/ADR-RES [3]; [17],> 100 µM
same,TGI,NCI/ADR-RES [3]; read-out: TGI,23.6 µM
same,GI50,NCI/ADR-RES [3]; read-out: pGI50 (converted),3.39 µM
same,CC50,NCI/ADR-RES [3]; [18],> 100 µM
same,TGI,NCI/ADR-RES [3]; read-out: pTGI (converted),23.4 µM
same,growth at 0.01 µM,CAKI-1 [4],102%
same,growth at 0.01 µM,U-251 [5],97%
same,growth at 1 µM,SW-620 [6],101%
same,IC50,RPMI-8226,1.95 µM
same,GI50,RPMI-8226; read-out: GI50,1.96 µM
same,CC50,RPMI-8226; [17],> 100 µM
same,TGI,RPMI-8226; read-out: TGI,50 µM
same,GI50,RPMI-8226; read-out: pGI50 (converted),1.95 µM
same,CC50,RPMI-8226; [18],> 100 µM
same,TGI,RPMI-8226; read-out: pTGI (converted),5.13 µM
same,growth at 0.1 µM,A498,50%
same,growth at 0.01 µM,UO-31,93%
same,growth at 0.1 µM,SR,98%
same,growth at 0.01 µM,HCT-15 [7],93%
same,growth at 0.01 µM,SK-MEL-28,97%
same,growth at 0.01 µM,NCI/ADR-RES [8],96%
same,growth at 100 µM,HCT-116 [9],-57%
same,growth at 100 µM,KM12,-74%
same,growth at 1 µM,NCI-H460 [10],96%
same,growth at 0.1 µM,MDA-MB-435,94%
same,GI50,OVCAR-8; read-out: GI50,2.15 µM
same,CC50,OVCAR-8; [17],50.1 µM
same,TGI,OVCAR-8; read-out: TGI,55.5 µM
same,GI50,OVCAR-8; read-out: pGI50 (converted),2.14 µM
same,CC50,OVCAR-8; [18],79.4 µM
same,TGI,OVCAR-8; read-out: pTGI (converted),5.62 µM
same,growth at 100 µM,T47D,-52%
same,GI50,Malme-3M; read-out: GI50,2.37 µM
same,CC50,Malme-3M; [17],24.3 µM
same,TGI,Malme-3M; read-out: TGI,62.5 µM
same,GI50,Malme-3M; read-out: pGI50 (converted),2.34 µM
same,CC50,Malme-3M; [18],24.5 µM
same,TGI,Malme-3M; read-out: pTGI (converted),6.31 µM
same,growth at 1 µM,BT-549 [11],90%
same,growth at 100 µM,ACHN,-25%
same,growth at 0.1 µM,SF-539,95%
same,growth at 100 µM,BT-549 [12],-93%
same,growth at 100 µM,CAKI-1 [13],-38%
same,growth at 1 µM,HCT-15 [14],90%
same,growth at 100 µM,SW-620 [15],-58%
same,growth at 0.1 µM,MOLT-4,92%
same,GI50,NCI-H522; read-out: GI50,1.32 µM
same,CC50,NCI-H522; [17],19 µM
same,TGI,NCI-H522; read-out: TGI,44.8 µM
same,GI50,NCI-H522; read-out: pGI50 (converted),1.32 µM
same,CC50,NCI-H522; [18],19.1 µM
same,TGI,NCI-H522; read-out: pTGI (converted),4.47 µM
same,growth at 1 µM,U-251 [16],56%
